Each structure is given as a SMILES string. Where a name gives a salt, the structure may show the parent alone. Read-outs that look alike come from different tables or passages of the source. Some results are limits rather than exact numbers.

The conditions of series [1]: cited from earlier work.
A short description of series [2]: Single dose study: intravenous cocaine, detection in oral fluid and urine by STC assay and GC/MS. It counts as in vivo, human. As to the method: A total of 10 volunteers received 10 or 25 mg of intravenous cocaine in a controlled environment. Oral fluid and urine specimens were collected over 0-130 hours after dose. Oral fluid specimens (400 µL) were added to the collection pad and diluted into the EPISCREEN™ Control Matrix. Samples were then tested using the STC assay and GC/MS. The results were platted over time for each patient. The oral fluid and urine results were compared using similar points on the curve. For all volunteers, regardless of the dose, the cocaine concentrations in oral fluid were detectable 5 minutes after dosing. For the subject who received 10 mg, oral fluid cocaine levels were no longer detectable after 25 minutes. For the remaining nine subjects who received 25 mg intravenous cocaine, drug levels in oral fluids were detectable after dosing for up to 3-6 hours. The length of time detectable drug concentrations were present in urine varied greatly. […] This variability could be attributed to a number of factors, including the volume of urine collected and the sensitivity of the cutoff used. In general, however, positive results were obtained in the subjects for up to 58 hours after dosing.

For series [3] the following is noted: cited from earlier work. This is another data set of the same source.

Regarding `CN[C@@H](C)Cc1ccccc1` [Methamphetamine, methylamphetamine hydrochloride], the “found unchanged in urine” value in series [1] (acid urine) was “up to 76%”; in series [1] (alkaline urine) it was 2%. In series [1] (normal conditions), the “excreted in the urine unchanged” value is given as “up to 43%”. In addition, the “time detected in oral fluid” value in series [1] (oral fluid, depends on dose and rate of saliva flow) is not above 50 h. Further, the “time detection in urine is successful following use” value in series [1] (urine) is 24 to 48 h.

Take `COC(=O)[C@H]1[C@@H](OC(=O)c2ccccc2)C[C@@H]2CC[C@H]1N2C` [Cocaine, benzyolmethylecgonine]: the “time after dosing at which cocaine concentrations in oral fluid were detectable” value in series [2] (all volunteers, 10 or 25 mg intravenous) stood at 5 min. For the same compound, the “time drug levels in oral fluids were detectable after dosing” value in series [2] (nine subjects, 25 mg intravenous) lay within 3 to 6 h. Further, in series [2] (subject who received 10 mg intravenous), the “time after which oral fluid cocaine levels were no longer detectable” value came to 25 min.

For the compound `CCCCCc1cc(O)c2c(c1)OC(C)(C)[C@@H]1CCC(C)=C[C@@H]21` [THC, Tetrahydrocannabinol], the persistence in saliva in series [3] (saliva, after use, depends on pH and rate of saliva flow) was not above 14 h. Also, in series [3] (urine, depending upon the frequency of use), the persistence in urine result is on record as “up to 30 days”.
